Starred links: 1 amine or outer side, 2 acyl side, 3 side chain; linkers in the order of their positions; H or OH if unused. Non-standard residues stand in square brackets, D forms with d. Residues, ends and D or L forms follow the SMILES beside them. Groups on a side chain read outwards from the residue. No end group written: not given here. *: point of attachment. C18 diacid = O=C(O)CCCCCCCCCCCCCCCCC(=O)*; C17 diacid = O=C(O)CCCCCCCCCCCCCCCC(=O)*; γGlu = O=C(O)[C@H](CCC(=O)[*:2])N[*:1]; NMeY = CN[C@@H](Cc1ccc(O)cc1)C(=O)O; AEEA = NCCOCCOCC(=O)O; Aib = CC(C)(N)C(=O)O
T1: full-length human GIPR with an N-terminal FLAG tag (human, UniProt P48546 22-466)
T1 sequence (looked up): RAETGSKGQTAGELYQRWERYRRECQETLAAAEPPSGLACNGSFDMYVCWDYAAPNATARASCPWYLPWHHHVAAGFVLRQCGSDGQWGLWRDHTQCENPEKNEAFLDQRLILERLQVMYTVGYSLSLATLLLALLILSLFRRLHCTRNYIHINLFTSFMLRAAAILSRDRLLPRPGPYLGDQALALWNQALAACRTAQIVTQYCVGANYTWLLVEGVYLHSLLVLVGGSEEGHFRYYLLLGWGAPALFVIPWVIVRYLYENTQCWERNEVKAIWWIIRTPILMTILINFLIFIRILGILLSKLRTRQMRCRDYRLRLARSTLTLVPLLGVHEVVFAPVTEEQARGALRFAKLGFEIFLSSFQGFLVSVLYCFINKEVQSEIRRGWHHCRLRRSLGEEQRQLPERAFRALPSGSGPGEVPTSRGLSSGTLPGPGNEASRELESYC


What was measured:
[1] = Pharmacokinetics in dog after IV and SC dosing; details: in vivo; for half-life: IV 3 nmol/kg, read-out: IV T½ (converted); for MRT last: SC 3 nmol/kg, read-out: SC MRT 0-last
Experimental: Pharmacokinetic (PK) were conducted in dog in order to determine the half-life after IV and SC dosing. The peptide was dissolved in 10% DMSO/0.09% Polysorbate/PBS pH 7.4 to a concentration of 3 nmol/mL and the animal were dose with a volume of 1 mL/kg SC or IV. Blood sample were collected at 0, 0.033, 0.083, 0.25, 0.5, 1, 2, 4, 6, 8, 12, 24, 48, 72, 96, 120, 168, 336 hours for IV dosing and 0.25, 0.5, 1, 2, 4, 6, 8, 12, 24, 48, 72, 96, 120, 168, 336 for SC dosing, EDTA-K2 was used as anticoagulant. The plasma concentration of the peptide was measured using LCMS. Allometric scaling of lipidated peptide pharmacokinetics including T1/2 and MRT is known in the art for rodent to dog and mini pig and to humans. […] See for example, Discovery and Development of Liraglutide and Semaglutide. Knudsen, L. B.; Lau, J. Frontiers in Endocrinology, 2019, vol 10, Article 155.

[2] = Human plasma protein binding (PPB); format: in vitro ADME; details: for free unbound peptide in human plasma (in words): judged for once per week (QW) dosing
Method in brief: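 Peptides spiked at 1000 nmol/L into pooled human K2-EDTA plasma adjusted to pH 7.4, incubated 30 min at 37 °C, then ultracentrifuged at ~450,000 g, 4 °C for 3 h. Fu derived from LC-MS/MS (MRM) peak area ratios, supernatant versus plasma.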

[3] = Dog plasma protein binding (PPB); format: in vitro ADME; details: pH 7.4; fraction unbound; dog serum; read-out: Dog PPB (FUplasma)
Method in brief: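 Fraction unbound (Fu,plasma) is given as a percentage. It was measured with the method and analysis of the human protein-binding protocol, but using dog serum in place of human serum.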

physchem = assay: physchem
Method in brief: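 Solubility at pH 7.4 determined by stepwise addition of 200 mM phosphate buffer in 100 μL increments to 3 mg peptide, mixing briefly each time, until no insoluble material remained, then measured by liquid chromatography.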

human GLP-1R = target: T2, human GLP-1R (Homo sapiens, UniProt P43220); assay: Human GLP1R agonist activity, intracellular cAMP accumulation; format: cell-based; details: HEK-293T cells overexpressing human GLP-1R, 1 hr, read-out: Human GLP1R cAMP EC50, HEK293T
T2 construct: HEK-293T cells overexpressing full-length human GLP-1R; FLAG (N); host or cells: HEK-293T
T2 sequence (P43220 24-463): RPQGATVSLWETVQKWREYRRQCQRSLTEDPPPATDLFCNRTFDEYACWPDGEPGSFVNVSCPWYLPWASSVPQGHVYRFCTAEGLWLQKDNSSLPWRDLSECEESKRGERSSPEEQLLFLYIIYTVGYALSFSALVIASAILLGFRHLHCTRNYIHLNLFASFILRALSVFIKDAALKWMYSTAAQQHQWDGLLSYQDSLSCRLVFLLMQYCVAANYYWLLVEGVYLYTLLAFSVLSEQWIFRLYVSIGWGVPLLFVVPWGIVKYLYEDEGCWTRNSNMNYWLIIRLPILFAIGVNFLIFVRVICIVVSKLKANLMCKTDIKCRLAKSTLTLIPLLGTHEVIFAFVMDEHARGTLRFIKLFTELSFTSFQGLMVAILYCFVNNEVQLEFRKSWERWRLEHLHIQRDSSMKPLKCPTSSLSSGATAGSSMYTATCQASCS
Method in brief: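 cAMP accumulation is measured by HTRF after a 1 hr, room-temperature, dark exposure of thawed cells (4×10^5 cells/mL in Krebs Ringer buffer) to compound. Activity is scaled between DMSO alone as 0% and 1 nm GLP-1 as 100%.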

[4] = target: T1, full-length human GIPR with an …; assay: cell-based or functional assay
[5] = target: full-length human GLP-1R with an N-terminal FLAG tag (human, UniProt P43220 24-463); assay: cell-based or functional assay
dog plasma proteins = assay: plasma protein binding, ultracentrifugation, LC-MS/MS
human plasma proteins = assay: as above
[6] = both sexes, pH 7.4, fraction unbound, human plasma, 1000 nmol/L peptide, ultracentrifugation, read-out: Human PPB (FUplasma)

Molecule | half-life [1] [days] | MRT last [1] [h] | free unbound peptide in human plasma (in words) [2] | Human GIPR cAMP EC50, HEK293T [4] [pM] | Human GLP1R cAMP EC50, HEK293T [5] [nM] | Dog PPB (FUplasma), fraction unbound in plasma (fraction unbound) (dog plasma proteins) | Human PPB (FUplasma), fraction unbound in plasma (fraction unbound) (human plasma proteins) | further results
CC[C@H](C)[C@H](NC(=O)[C@H](Cc1ccccc1)NC(=O)[C@@H](NC(=O)CNC(=O)[C@H](CCC(=O)O)NC(=O)C(C)(C)NC(=O)[C@H](Cc1ccc(O)cc1)NC)[C@@H](C)O)C(=O)N[C@@H](CO)C(=O)N[C@@H](CC(=O)O)C(=O)N[C@@H](Cc1ccc(O)cc1)C(=O)N[C@@H](CO)C(=O)N[C@H](C(=O)NC(C)(C)C(=O)N[C@@H](CCCCNC(=O)CNC(=O)CNC(=O)CNC(=O)CNC(=O)CNC(=O)CCCCCCCCCCCCCCCCC(=O)O)C(=O)N[C@@H](CC(=O)O)C(=O)N[C@@H](CCCNC(=N)N)C(=O)NC(C)(C)C(=O)N[C@@H](C)C(=O)N[C@@H](CCC(N)=O)C(=O)NC(C)(C)C(=O)N[C@@H](CC(=O)O)C(=O)N[C@@H](Cc1ccccc1)C(=O)N[C@H](C(=O)N[C@@H](CC(N)=O)C(=O)N[C@@H](Cc1c[nH]c2ccccc12)C(=O)N[C@@H](CC(C)C)C(=O)N[C@@H](CC(C)C)C(=O)N[C@@H](C)C(=O)N[C@@H](CCC(N)=O)C(=O)N[C@@H](CCCNC(=N)N)C(=O)NCC(=O)O)C(C)C)[C@@H](C)CC [Compound 294, Me-Y-Aib-E-G-T-F-I-S-D-Y-S-I-Aib-Km-D-R-Aib-A-Q-Aib-D-F-V-N-W-L-L-A-Q-R-G-OH] | 2.46 | 97 | optimum free unbound peptide |  |  |  |  | fraction unbound [2, 6]: < 0.002; fraction unbound [3]: 0.0111; solubility (physchem; pH 7.4): ≥ 15 mg/mL; solubility (physchem; pH 7.4, aqueous buffer): ≥ 30 mg/mL; EC50 (human GLP-1R): 38.9 nM
CC[C@H](C)[C@H](NC(=O)[C@H](CO)NC(=O)[C@H](Cc1ccc(O)cc1)NC(=O)[C@H](CC(=O)O)NC(=O)[C@H](CO)NC(=O)[C@@H](NC(=O)[C@H](Cc1ccccc1)NC(=O)[C@@H](NC(=O)CNC(=O)[C@H](CCC(=O)O)NC(=O)C(C)(C)NC(=O)[C@H](Cc1ccc(O)cc1)NC)[C@@H](C)O)[C@@H](C)CC)C(=O)N[C@@H](C)C(=O)N[C@@H](CC(C)C)C(=O)N[C@@H](CC(=O)O)C(=O)N[C@@H](CCCNC(=N)N)C(=O)NC(C)(C)C(=O)N[C@@H](C)C(=O)N[C@@H](CCC(N)=O)C(=O)NC(C)(C)C(=O)N[C@@H](CCCCNC(=O)COCCOCCNC(=O)COCCOCCNC(=O)CC[C@H](NC(=O)CC[C@H](NC(=O)CCCCCCCCCCCCCCCCC(=O)O)C(=O)O)C(=O)O)C(=O)N[C@@H](Cc1ccccc1)C(=O)N[C@H](C(=O)N[C@@H](CC(N)=O)C(=O)N[C@@H](Cc1c[nH]c2ccccc12)C(=O)N[C@@H](CC(C)C)C(=O)N[C@@H](CC(C)C)C(=O)N[C@@H](C)C(=O)N[C@@H](CCC(N)=O)C(=O)N[C@@H](CCCCN)C(=O)NCC(=O)O)C(C)C [Compound 41, Me-Y-Aib-E-G-T-F-I-S-D-Y-S-I-A-L-D-R-Aib-A-Q-Aib-Km-F-V-N-W-L-L-A-Q-K-G-OH] (H-[NMeY][Aib]EGTFISDYSIALDR[Aib]AQ[Aib]K([AEEA-AEEA-γGlu-γGlu-C18 diacid])FVNWLLAQKG-OH) | 4.79 | 119 | optimum free unbound peptide |  |  |  |  | Human PPB (FUplasma) ([2]; fraction unbound, human plasma, 1000 nmol/L peptide, ultracentrifugation): <0.002; fraction unbound [3]: 0.0007; solubility (physchem; pH 7.4): ≥ 15 mg/mL
CC[C@H](C)[C@H](NC(=O)[C@H](Cc1ccccc1)NC(=O)[C@@H](NC(=O)CNC(=O)[C@H](CCC(=O)O)NC(=O)C(C)(C)NC(=O)[C@H](Cc1ccc(O)cc1)NC)[C@@H](C)O)C(=O)N[C@@H](CO)C(=O)N[C@@H](CC(=O)O)C(=O)N[C@@H](Cc1ccc(O)cc1)C(=O)N[C@@H](CO)C(=O)N[C@H](C(=O)NC(C)(C)C(=O)N[C@@H](CC(C)C)C(=O)N[C@@H](CC(=O)O)C(=O)N[C@@H](CCCNC(=N)N)C(=O)NC(C)(C)C(=O)N[C@@H](C)C(=O)N[C@@H](CCC(N)=O)C(=O)NC(C)(C)C(=O)N[C@@H](CC(N)=O)C(=O)N[C@@H](Cc1ccccc1)C(=O)N[C@H](C(=O)N[C@@H](CC(N)=O)C(=O)N[C@@H](Cc1c[nH]c2ccccc12)C(=O)N[C@@H](CC(C)C)C(=O)N[C@@H](CC(C)C)C(=O)N[C@@H](C)C(=O)N[C@@H](CCC(N)=O)C(=O)N[C@@H](CCCCNC(=O)COCCOCCNC(=O)COCCOCCNC(=O)CC[C@H](NC(=O)CC[C@H](NC(=O)CCCCCCCCCCCCCCCC(=O)O)C(=O)O)C(=O)O)C(=O)N1CCC[C@H]1C(=O)N[C@@H](CO)C(=O)N[C@@H](CO)C(=O)NCC(=O)N[C@@H](C)C(=O)N1CCC[C@H]1C(=O)N1CCC[C@H]1C(=O)N1CCC[C@H]1C(=O)N[C@@H](CO)C(N)=O)C(C)C)[C@@H](C)CC [Compound 16] (H-[NMeY][Aib]EGTFISDYSI[Aib]LDR[Aib]AQ[Aib]NFVNWLLAQK([AEEA-AEEA-γGlu-γGlu-C17 diacid])PSSGAPPPS-NH2) | 1.58 | 59 | optimum free unbound peptide |  |  |  |  | MRT ([1]; 3 nmol/kg, read-out: mean residence time (MRT)): 59 h; fraction unbound at 30 min, 1000 nmol/L [2, 6]: < 0.0012; fraction unbound at 30 min, 1000 nmol/L [3]: ≤ 0.00116; solubility (physchem; pH 7.4, aqueous buffer, pH 7.4 Phosphate Buffer - Solubility, 200 mM Phosphate buffer pH 7.4): ≥ 30 mg/mL; solubility (physchem; pH 7.4, solubility in phosphate buffer at pH 7.4, 200 mM phosphate buffer pH 7.4): ≥ 15 mg/mL
[NMeY][Aib]EGTFISDYSI[Aib]LDRK([AEEA-AEEA-γGlu-γGlu-C17 diacid])AQ[Aib]NFVNWLLAQRPSSGAPPPS-NH2 [Compound No. 15] |  |  |  | 0.3 | 35.9 | 0.0021 | 0.0017 | 
[NMeY][Aib]EGTFISDYSI[Aib]LDR[Aib]AQ[Aib]K([AEEA-AEEA-γGlu-γGlu-C17 diacid])FVNWLLAQRPSSGAPPPS-NH2 [Compound No. 13] |  |  |  | 0.4 | 49 | < 0.002 | < 0.002 | 
[NMeY][Aib]EGTFISDYSI[Aib]LDR[Aib]AQ[Aib]NFVNWLLAQK([AEEA-AEEA-γGlu-γGlu-C17 diacid])PSSGAPPPS-NH2 [Compound No. 16] |  |  |  | 0.4 | 35.1 | < 0.00116 | < 0.0012 | 
[NMeY][Aib]EGTFISDYSIALDR[Aib]HQ[Aib]NFVNWLLAK([AEEA-AEEA-γGlu-γGlu-C18 diacid])R-NH2 [Compound No. 19] |  |  |  |  |  | 0.0005 | 0.0011 | 
[NMeY][Aib]EGTFISDYSIALDR[Aib]AQ[Aib]K([AEEA-AEEA-γGlu-γGlu-C18 diacid])FVNWLLAQKG-OH [Compound No. 41] |  |  |  |  |  | 0.0007 | < 0.002 | 

Source: patent publication US20230143604A1, “QW DOSING OF GIP RECEPTOR AGONIST PEPTIDE COMPOUNDS AND USES THEREOF” (TAKEDA PHARMACEUTICAL COMPANY LIMITED, priority 2020, published 2023)
